In patent US7556939B2, “Identification and characterization of racemases, definition of protein signatures, and a test for detecting D-amino acid and for screening molecules capable of inhibiting the activity of racemase, especially proline racemase” (Institut Pasteur, priority 2003, dated 2009):
“And” between values parts separate entries of the source, which are not always exact repeats. Identical values can stand only once.

Target: T1, D-AAO (Sus scrofa, UniProt P00371)
T1 construct: purchased Sigma A-5222; host or cells: swine kidney
T1 sequence (P00371 whole entry): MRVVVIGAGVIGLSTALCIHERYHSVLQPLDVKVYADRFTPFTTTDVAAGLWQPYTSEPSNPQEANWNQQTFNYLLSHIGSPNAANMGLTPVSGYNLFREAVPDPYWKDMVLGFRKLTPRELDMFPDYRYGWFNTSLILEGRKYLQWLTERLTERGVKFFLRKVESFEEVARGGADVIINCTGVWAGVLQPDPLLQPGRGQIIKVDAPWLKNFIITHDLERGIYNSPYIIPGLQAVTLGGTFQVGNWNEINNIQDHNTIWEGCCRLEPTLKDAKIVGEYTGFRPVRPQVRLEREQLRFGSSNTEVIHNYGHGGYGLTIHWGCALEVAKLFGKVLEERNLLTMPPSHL
Experiment: D-AAO/HRP microplate test for detection of D-amino acids
Format: biochemical, swine
Experimental: • (3) Prepare a mixture containing the enzymes (D-AAO/HRP Mix), as follows: The amounts are given for one well, provided that the final volume will be 100 μl with the racemase products or the substrate:
This mixture is kept in the ice until use. • (4) The quantitation reaction starts when 13 μl of D-AAO/HRP mix is added to the reaction well. • (5) The microplate is covered with an adhesive coverlid and it is left in the dark at 37° C. between […] and 2 hours. The reaction can be monitored by eye whenever a color gradient matches the D-amino acid concentration of the standard dilutions. • (6) The microplate is read with a microplate spectrophotometer using a filter of at 490 nm.
The D-AAO/HRP test described here above can also be used for this purpose with slight modifications. For that purpose, the racemase reaction step should be skipped and the microplate test should start straightforward at the II-1-2.1-2 step described above with the following remarks:
1) Standard: It should not be an equimolar mixture of D- and L-amino acid, but rather a serial dilution of D-Amino acids. The choice of amino acid is made according to the interest of the D-amino acid under investigation. The final volume in wells should be of 87 μl.
2) Negative control: It is made with the L-enantiomer of the D-amino acid under investigation. The final volume should be 87 μl.
3) Blank: It is made with 87 μl buffer*. (See paragraph II.1.1 Materials.)
4) Samples: The samples to be tested should be adjusted to pH 8,3 with buffer* and their final volumes should be of 87 μl per well.
Obs: Standards, negative controls, samples to test and blanks should be made in duplicates. They are dispensed into the wells of the microplate.
5) Then, the procedure follows steps 3) to 6), as above.
Different L- and D-amino acids were tested, namely Tyrosine (Tyr), Valine (Val), Threonine (Thr), Glutamic acid (Glu), Lysine (Lys) and Tryptophan (Try).

[1] = L-enantiomers, 12.5 mM, duplicate wells
[2] = D-enantiomers, 6.25 mM, duplicate wells

O=C(O)[C@H]1CCCN1 [D-pro, D-proline]
Optical density at 490 nm (0.05 mM): 0.173
Optical density at 490 nm (0.09 mM): 0.213 and 0.215
Optical density at 490 nm (0.19 mM): 0.308 and 0.32
Optical density at 490 nm (0.39 mM): 0.496 and 0.504
Optical density at 490 nm (0.77 mM): 0.809 and 0.824
Optical density at 490 nm (1.55 mM): 1.234 and 1.221
Optical density at 490 nm (3.09 mM): 1.716 and 1.879
Optical density at 490 nm (6.19 mM): 1.983 and 1.949
Optical density at 490 nm (12.37 mM): 1.814 and 1.976
Optical density at 490 nm (24.75 mM): 1.757 and 1.885
Optical density at 490 nm (49.5 mM): 1.961 and 2.004

NCCCC[C@H](N)C(=O)O [L-Lys, Lysine]
Optical density at 490 nm [1]: 0.125 and 0.131

CC(C)[C@H](N)C(=O)O [L-Val, Valine]
Optical density at 490 nm [1]: 0.135 and 0.129

CC(C)[C@H](N)C(=O)O [D-Val, Valine]
Optical density at 490 nm [2]: 1.683 and 1.612

N[C@@H](Cc1c[nH]c2ccccc12)C(=O)O [L-Try, Tryptophan]
Optical density at 490 nm [1]: 0.131 and 0.138

N[C@@H](Cc1ccc(O)cc1)C(=O)O [L-Tyr, Tyrosine]
Optical density at 490 nm [1]: 0.193 and 0.141

C[C@@H](O)[C@H](N)C(=O)O [D-Thr, Threonine]
Optical density at 490 nm [2]: 0.215 and 0.157

NCCCC[C@H](N)C(=O)O [D-Lys, Lysine]
Optical density at 490 nm [2]: 0.243 and 0.157

N[C@@H](Cc1ccc(O)cc1)C(=O)O [D-Tyr, Tyrosine]
Optical density at 490 nm [2]: 1.317 and 0.991

C[C@@H](O)[C@H](N)C(=O)O [L-Thr, Threonine]
Optical density at 490 nm [1]: 0.124 and 0.128

N[C@@H](CCC(=O)O)C(=O)O [L-Glu, Glutamic acid]
Optical density at 490 nm [1]: 0.131 and 0.141

N[C@@H](Cc1c[nH]c2ccccc12)C(=O)O [D-Try, Tryptophan]
Optical density at 490 nm [2]: 0.615 and 0.662

N[C@@H](CCC(=O)O)C(=O)O [D-Glu, Glutamic acid]
Optical density at 490 nm [2]: 0.147 and 0.116
